Results published in patent publication EP0173262A2, “Use of 1,4-naphthoquinone derivatives in a low concentration as immunostimulating agents” (Carnivora-Deutschland GmbH, priority 1984, dated 1986).

How the values were obtained:
Granulozyten = assay: Granulocyte test (modified after Brandt), phagocytosis of yeast particles; format: cell-based; settings: concentration range 10^-1 bis 10^-2 mg/ml
From the text: (§1) Die vorliegende Erfindung beruht auf dem erstmaligen Nachweis einer Immunstimulation durch 1,4-Naphthochinon-Derivate der angegebenen Art. Die Immunstimulation läßt sich experimentell in vitro und in vivo klar nachweisen. Als geeignete immunologische Testverfahren dienen der Carbon Clearance-Test (CCT)-RES-Funktion (Biozzi, G. Benacerraf, B. und Halpern, B.N., Br. J. Exp.Pathol. 34, 441 (1953)); der Granulocyten-Test gemäß Brandt, L., Scand.J.Haematol. Suppl. 2 (1967), der vorzugsweise in modifizierter Form angewandt wird; sowie eine Chemoluminenszenz-Messung nach Allen (Allen, R.C. in "Bioluminescence and Chemiluminescence; Basic Chemistry and Analytical Applications", Eds: De Luca und Mc Elroy, S. 63-73, Academie Press, New York, 1981).
In 20 ml Spritze 1 Tropfen Heparin (Thrombophob) und ca. 10 ml Blut abnehmen und mit 1,5% Dextran T 500 im Verhältnis 2:1 mischen. Kanüle auf der Spritz umbiegen und 30 Minuten bei 25°C absetzen lassen (ca. 2-3 ml Blut für Eigenserum abnehmen).
Den Überstand (Leukozytensuspension) in steriles Röhrchen überspritzen; 7 Minuten bei 500 U. zentrifugieren.
Überstand weggießen, Bodensatz (Leukozyten) 2 mal mit RPM I-Puffer bei 500 U. waschen.
Granulozyten mit ca. 5 ml Puffer auffüllen und Zellen auf 5 x 10 x 10^6 einstellen. […] Zellsuspension in 0,475 ml 3 % iger Essigsäure mischen. In Neubauerkammer 4 Quadrate auszählen (100 Zellen/Kammer). […]

[1] = tested on: polymorphkernigen Leucocyten (PMNL); assay: Chemiluminescence measurement (modified after Allen), zymosan-stimulated PMNL; format: cell-based; settings: concentration range 10^-1 bis 10^-2 mg/ml
From the text: as §1
• a) PBS-Puffer ohne Ca^2+ und Mg^2+ (steril) (Fa. Biochrom, Berlin) • b) Veronal-gepufferte Kochsalzlösung mit Ca^2+, Mg^2+, Glucose und Albumin Stammlösung: 8.3 g NaCl, 1.02 g Natrium, 5,5-Diäthylbarbiturat (Veronal), 102 mg MgCl2, 22 mgCaCl2 in 150 ml H2O (bidest.) lösen, + 3.5 ml 1M IICL auf 200 ml mit H20 (bidest.) auffüllen. Von dieser Stammlösung werden 40 ml mit 140 ml H20 (bidest.) verdünnt, mit 1M HCL auf pH 7.0 eingestellt und mit II20 (bidest.) auf 200 ml auf gefüllt. […]

With `CC1=CC(=O)c2c(O)cccc2C1=O` [Plumbagin] the “effect on phagocytosis at higher concentrations” value (Granulozyten) was “ausgeprägte Phagocytosehemmung” and the “effect at higher concentrations” value [1] was “Phagocytosehemmung sowie eine Immunsuppression bzw. Cytotoxicität”.
